Experiment: xn = mol fraction of the nth substance listed
Details: 101 kPa

CC(=O)[O-].CCCC[n+]1ccn(C)c1 + CCCC[n+]1ccn(C)c1.O=S(=O)([N-]S(=O)(=O)C(F)(F)F)C(F)(F)F
Details	electrical conductivity, 283.15 K [S/m]	electrical conductivity, 298.15 K [S/m]	electrical conductivity, 313.15 K [S/m]	electrical conductivity, 314.3 K [S/m]	electrical conductivity, 333.15 K [S/m]	viscosity, 283.15 K [mPa·s]	viscosity, 298.15 K [mPa·s]	viscosity, 313.15 K [mPa·s]	viscosity, 314.3 K [mPa·s]	viscosity, 333.15 K [mPa·s]
x2 = 0	–	0.0522	–	0.146	0.369	–	441	–	132	54.7
x2 = 0.1057	–	0.0683	–	–	–	–	343	–	–	–
x2 = 0.2396	0.0292	0.0856	0.196	–	0.46	817	255	102	–	40.3
x2 = 0.321	–	–	–	0.237	–	–	–	–	70	–
x2 = 0.3662	–	0.109	–	–	0.514	–	192	–	–	34.3
x2 = 0.5245	0.0623	0.153	0.309	0.33	0.639	357	134	62	–	27.9
x2 = 0.6541	0.0888	0.203	–	–	0.755	248	101	–	–	23.5
x2 = 0.8097	0.133	–	–	–	0.932	165	–	–	–	19.4

CCCC[n+]1ccn(C)c1.O=S(=O)([N-]S(=O)(=O)C(F)(F)F)C(F)(F)F + CC(=O)[O-].CCCC[n+]1ccn(C)c1
x1 = 1
Details	electrical conductivity [S/m]	viscosity [mPa·s]
283.15 K	0.207	106
298.15 K	0.404	51
333.15 K	1.18	15.5

Source: a compilation of properties of binary mixtures (doi:10.1016/j.molliq.2016.02.018)
